Results reported in patent US9096591B2, “Tetracyclic compounds” (Medivation Technologies, Inc., priority 2007, dated 2015).
Where two headings read alike, the source gives them in different places.

Legend:
[1] = target: T1, human recombinant histamine H1 receptor (Homo sapiens, UniProt P35367); experiment: Histamine H1 radioligand binding ([3H]Pyrilamine); settings: read-out: Inhibition of ligand binding, Hist. H1
T1 construct: expressed in transfected cells; host or cells: CHO cells
In short: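 Receptor expressed in CHO cells, assayed in 50 mM Tris-HCl pH 7.4 with 2 mM MgCl2, 100 mM NaCl, 250 mM sucrose. Compounds tested at 1 μM in 1% DMSO; non-specific binding set with 1 μM pyrilamine. Filter-bound radioactivity counted; values are percent inhibition of specific binding.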

[2] = target: T2, human recombinant serotonin (5-Hydroxytryptamine) 5-HT2A receptor (Homo sapiens, UniProt P28223); experiment: Serotonin 5-HT2A radioligand binding ([3H]Ketanserin); settings: percent inhibition of specific binding
T2 construct: expressed in transfected cells; host or cells: CHO-K1 cells
T2 sequence (P28223 whole entry): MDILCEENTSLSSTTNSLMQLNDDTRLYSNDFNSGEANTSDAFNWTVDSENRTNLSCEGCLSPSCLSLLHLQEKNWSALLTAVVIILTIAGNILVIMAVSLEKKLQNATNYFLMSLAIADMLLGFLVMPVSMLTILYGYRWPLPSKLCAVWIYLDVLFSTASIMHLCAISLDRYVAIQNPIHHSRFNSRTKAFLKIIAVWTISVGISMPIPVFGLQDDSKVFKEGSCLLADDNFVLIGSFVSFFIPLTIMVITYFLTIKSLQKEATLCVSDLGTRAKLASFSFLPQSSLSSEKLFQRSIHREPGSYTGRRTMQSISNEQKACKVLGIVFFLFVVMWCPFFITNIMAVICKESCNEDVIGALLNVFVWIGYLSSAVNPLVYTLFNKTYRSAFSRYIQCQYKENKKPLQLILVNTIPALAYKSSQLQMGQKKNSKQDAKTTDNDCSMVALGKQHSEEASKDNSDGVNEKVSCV
Procedure: (§1) Compounds of the invention were incubated with 0.5 nM [^3H]Ketanserin for 60 minutes at 25° C. Non-specific binding was estimated in the presence of 1 μM Mianserin. Receptor proteins were filtered and washed, the filters were then counted to determine [^3H]Ketanserin specifically bound. […] Biochemical assay results are presented as the percent inhibition of specific binding in Table 6.

[3] = target: T3, human recombinant histamine H2 receptor (Homo sapiens, UniProt P25021); experiment: Histamine H2 radioligand binding ([125I]Aminopotentidine); settings: read-out: Inhibition of ligand binding, Hist. H2
T3 construct: expressed in transfected cells; host or cells: CHO-K1 cells
T3 sequence (P25021 whole entry): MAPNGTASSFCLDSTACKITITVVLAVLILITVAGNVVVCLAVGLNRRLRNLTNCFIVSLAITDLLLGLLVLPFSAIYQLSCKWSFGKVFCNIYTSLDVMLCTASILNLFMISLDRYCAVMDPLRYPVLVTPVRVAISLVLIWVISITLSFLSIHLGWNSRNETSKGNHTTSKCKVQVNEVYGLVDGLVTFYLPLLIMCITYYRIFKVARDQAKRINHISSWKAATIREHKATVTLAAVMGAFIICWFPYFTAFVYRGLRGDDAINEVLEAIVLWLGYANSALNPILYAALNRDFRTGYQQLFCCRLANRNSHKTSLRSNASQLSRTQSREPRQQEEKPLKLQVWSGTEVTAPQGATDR
In short: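 Test compounds were assessed for their ability to displace radioligand from the human recombinant histamine H2 receptor. Non-specific binding was determined in the presence of 3 μM Tiotidine, and results were expressed as percent inhibition of specific binding, with 1% DMSO serving as the vehicle.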

[4] = target: T4, human recombinant adrenergic α1D receptor (Homo sapiens, UniProt P25100); experiment: Adrenergic α1D radioligand binding ([3H]Prozosin); design: Inhibition of ligand binding, Adren. alpha1D: concentration or dose not given beside the values; settings: percent inhibition of specific binding
T4 construct: expressed in transfected cells; host or cells: HEK-293 cells
T4 sequence (P25100 1-572): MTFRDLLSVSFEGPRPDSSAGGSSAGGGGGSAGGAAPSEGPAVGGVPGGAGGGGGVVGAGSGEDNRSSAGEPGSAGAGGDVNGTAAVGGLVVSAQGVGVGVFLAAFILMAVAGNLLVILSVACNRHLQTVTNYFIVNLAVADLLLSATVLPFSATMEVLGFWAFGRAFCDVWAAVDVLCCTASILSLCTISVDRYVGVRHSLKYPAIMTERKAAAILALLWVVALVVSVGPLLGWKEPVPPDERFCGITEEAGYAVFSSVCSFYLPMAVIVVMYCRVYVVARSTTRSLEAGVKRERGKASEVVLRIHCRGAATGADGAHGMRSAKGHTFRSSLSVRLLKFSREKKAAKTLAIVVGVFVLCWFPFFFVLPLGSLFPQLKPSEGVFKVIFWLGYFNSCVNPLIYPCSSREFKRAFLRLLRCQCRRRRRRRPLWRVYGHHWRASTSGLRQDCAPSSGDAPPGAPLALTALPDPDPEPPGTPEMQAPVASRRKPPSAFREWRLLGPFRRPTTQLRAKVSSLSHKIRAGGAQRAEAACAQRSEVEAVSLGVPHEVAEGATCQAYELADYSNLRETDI
Procedure: as §1, with “of” for “of the”, “0.6” for “0.5”, “[^3H]Prozosin” for “[^3H]Ketanserin”, “10” for “1”, “phentolamine.” for “Mianserin.”

[5] = target: T5, human recombinant adrenergic α2B receptor (Homo sapiens, UniProt P18089); experiment: Adrenergic α2B radioligand binding ([3H]Rauwolscine); design: Inhibition of ligand binding, Adren. alpha2B: concentration or dose not given beside the values; settings: percent inhibition of specific binding
T5 construct: expressed in transfected cells; host or cells: CHO-K1 cells
T5 sequence (P18089 1-450): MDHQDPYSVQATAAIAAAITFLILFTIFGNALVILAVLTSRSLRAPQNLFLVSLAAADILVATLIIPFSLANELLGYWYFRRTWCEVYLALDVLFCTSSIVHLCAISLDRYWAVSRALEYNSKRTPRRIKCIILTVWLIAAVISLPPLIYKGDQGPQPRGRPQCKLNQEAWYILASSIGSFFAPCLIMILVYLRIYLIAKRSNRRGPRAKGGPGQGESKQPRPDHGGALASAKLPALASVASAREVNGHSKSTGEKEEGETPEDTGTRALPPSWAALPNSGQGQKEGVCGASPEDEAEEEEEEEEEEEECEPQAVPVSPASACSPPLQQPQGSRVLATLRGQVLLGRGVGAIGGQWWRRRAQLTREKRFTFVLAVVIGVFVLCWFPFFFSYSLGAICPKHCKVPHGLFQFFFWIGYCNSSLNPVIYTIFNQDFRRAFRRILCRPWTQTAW
In short: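 Membranes from CHO-K1 cells expressing the receptor, in 50 mM Tris-HCl pH 7.4 with 12.5 mM MgCl2, 1 mM EDTA, 0.2% BSA, incubated with compounds and 2.5 nM [3H]Rauwolscine for 60 minutes at 25 °C.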

[6] = target: T6, human recombinant dopamine D2L receptor (Homo sapiens, UniProt P14416); experiment: Dopamine D2L radioligand binding ([3H]Spiperone); settings: percent inhibition of specific binding
T6 construct: expressed in transfected cells; host or cells: CHO cells
T6 sequence (P14416 whole entry): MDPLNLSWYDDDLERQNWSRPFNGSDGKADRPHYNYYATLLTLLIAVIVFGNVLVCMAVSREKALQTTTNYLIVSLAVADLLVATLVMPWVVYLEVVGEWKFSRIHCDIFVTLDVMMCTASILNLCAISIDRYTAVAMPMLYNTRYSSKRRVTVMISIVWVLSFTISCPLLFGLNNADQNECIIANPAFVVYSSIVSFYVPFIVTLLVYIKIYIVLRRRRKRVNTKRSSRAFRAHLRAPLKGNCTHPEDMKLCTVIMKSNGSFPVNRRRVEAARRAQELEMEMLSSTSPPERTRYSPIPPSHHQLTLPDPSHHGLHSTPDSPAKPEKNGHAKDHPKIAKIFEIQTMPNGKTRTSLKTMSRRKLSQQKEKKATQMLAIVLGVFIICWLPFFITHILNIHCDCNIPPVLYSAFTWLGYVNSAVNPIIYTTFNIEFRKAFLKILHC
Procedure: Non-specific binding was estimated in the presence of 10 μM Haloperidol. Receptor proteins were filtered and washed, the filters were then counted to determine [^3H]Spiperone specifically bound. […] Biochemical assay results are presented as the percent inhibition of specific binding in Table 6.

[7] = percent inhibition of specific binding, screened at 1 μM

T1 sequence (P35367 whole entry): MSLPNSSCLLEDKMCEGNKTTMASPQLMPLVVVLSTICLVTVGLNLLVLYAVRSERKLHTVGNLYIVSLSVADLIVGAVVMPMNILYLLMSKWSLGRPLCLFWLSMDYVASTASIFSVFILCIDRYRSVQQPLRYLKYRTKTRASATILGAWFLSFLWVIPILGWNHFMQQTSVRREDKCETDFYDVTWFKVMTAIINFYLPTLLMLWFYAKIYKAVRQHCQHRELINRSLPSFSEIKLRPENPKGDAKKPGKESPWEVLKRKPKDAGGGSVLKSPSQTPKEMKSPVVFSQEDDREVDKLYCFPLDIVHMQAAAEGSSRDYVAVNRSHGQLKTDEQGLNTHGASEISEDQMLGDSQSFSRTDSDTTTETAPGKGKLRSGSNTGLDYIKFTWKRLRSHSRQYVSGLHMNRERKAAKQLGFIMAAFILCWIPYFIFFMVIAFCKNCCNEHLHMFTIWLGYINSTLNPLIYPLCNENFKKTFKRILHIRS

Row | SMILES | inhibition at 1 µM [1, 7] | Inhibition of ligand binding, Ser. 5-HT2A [2] | inhibition at 1 µM [3, 7] | Inhibition of ligand binding, Adren. alpha1D [4] | Inhibition of ligand binding, Adren. alpha2B [5] | Inhibition of ligand binding, Dop. D2L [6] | inhibition at 1 µM [1] | inhibition at 1 µM [3]
1 | Cc1ccc2c(c1)c1c(n2CCc2cnccn2)CCN(C)C1 [Compound 62] | 93% | 85% | 15% | 51% | 90% | −3% |  | 
2 | Cc1ccc2c(c1)c1c(n2CCc2ccc(C(F)(F)F)nc2)CCN(C)C1 [Compound 68] | 99% | 98% | 49% | 98% | 111% | 29% |  | 
3 | Cc1ccc(CCn2c3c(c4cc(Cl)ccc42)CN(C)CC3)cn1 [Compound 225, 8-chloro-2,3,4,5-tetrahydro-2-methyl-5-(2-(6-methylpyridin-3-yl)ethyl)-1H-pyrido[4,3-b]indole] |  | 92% |  | 86% | 107% | 32% | 101% | 72%
4 | Cc1ccc(CCn2c3c(c4cc(CO)ccc42)CN(C)CC3)cn1 [Compound 263] | 95% | 24% | 15% | 39% | 105% | −4% |  | 
5 | CN1CCc2c(c3cc(Cl)cc(F)c3n2CCc2ccc(C(F)(F)F)nc2)C1 [Compound 338, 8-chloro-6-fluoro-5-(2-(6-(trifluoromethyl)pyridin-3-yl)ethyl)-2,3,4,5-tetrahydro-2-methyl-1H-pyrido[4,3-b]indole] | 96% | 94% | 78% | 83% | 104% | 22% |  | 
6 | CN1CCc2c(c3cc(OC(F)(F)F)ccc3n2CCc2ccc(C(F)(F)F)nc2)C1 [Compound 341, 5-(2-(6-(trifluoromethyl)pyridin-3-yl)ethyl)-2,3,4,5-tetrahydro-2-methyl-8-(trifluoromethoxy)-1H-pyrido[4,3-b]indole] | 28% | 39% | 15% | −3% | −1% | 8% |  | 
7 | CC(C)c1ccc2c(c1)c1c(n2CCc2ccc(C(F)(F)F)nc2)CCN(C)C1 [Compound 342, 8-Isopropyl-2-methyl-5-[2-(6-trifluoromethyl-pyridin-3-yl)-ethyl]-2,3,4,5-tetrahydro-1H-pyrido[4,3-b]indole] | 80% | 74% | 39% | 91% | 108% | 29% |  | 
8 | CN1CCc2c(c3cc(Cl)c(F)cc3n2CCc2ccc(C(F)(F)F)nc2)C1 [Compound 343] | 98% | 89% | 29% | 61% | 117% | −7% |  | 
9 | CN1CCc2c(c3cc(Cl)ccc3n2CCn2cccc2)C1 [Compound 349, 8-Chloro-2-methyl-5-(2-pyrrol-1-yl-ethyl)-2,3,4,5-tetrahydro-1H-pyrido[4,3-b]indole] | 111% | 97% | 94% | 100% | 111% | 86% |  | 
10 | OC1CCC(N2CCc3c(c4cc(Cl)ccc4n3CCc3ccc(C(F)(F)F)nc3)C2)C1 (stereo not drawn) [Compound 351, 3-(8-chloro-5-(2-(6-(trifluoromethyl)pyridin-3-yl)ethyl)-3,4-dihydro-1H-pyrido[4,3-b]indol-2(5H)-yl)cyclopentanol] | 74% | 1% | -2% | 61% | 43% | 7% |  | 
11 | Cc1ccc2c(n1)c1c(n2CCc2ccc(C(F)(F)F)nc2)CCN(C)C1 [Compound 353, 9-aza-2,8-dimethyl-5-(2-(6-(trifluoromethyl)pyridin-3-yl)ethyl)-2,3,4,5-tetrahydro-1H-pyrido[4,3-b]indole] | 10% | −1% | -2% | 11% | 11% | 5% |  | 
12 | CCc1ccc2c(c1)c1c(n2CCc2ccc(C)nc2)CCN(C)C1 [Compound 357, 8-Ethyl-2-methyl-5-[2-(6-methyl-pyridin-3-yl)-ethyl]-2,3,4,5-tetrahydro-1H-pyrido[4,3-b]indole] | 101% | 69% | 68% | 89% | 106% | 47% |  | 
13 | CCc1ccc2c(c1)c1c(n2CCc2ccc(C(F)(F)F)nc2)CCN(C)C1 [Compound 358, 8-Ethyl-2-methyl-5-[2-(6-trifluoromethyl-pyridin-3-yl)-ethyl]-2,3,4,5-tetrahydro-1H-pyrido[4,3-b]indole] | 94% | 95% | 47% | 95% | 109% | 38% |  | 
14 | CCc1ccc(CCn2c3c(c4cc(C)ccc42)CN(C)CC3)cn1 [Compound 359, 5-[2-(6-Ethyl-pyridin-3-yl)-ethyl]-2,8-dimethyl-2,3,4,5-tetrahydro-1H-pyrido[4,3-b]indole] | 99% | 96% | 94% | 95% | 90% | 51% |  | 
15 | Cc1ccc2c(c1)c1c(n2CCc2ccc(C(C)C)nc2)CCN(C)C1 [Compound 360, 5-[2-(6-Isopropyl-pyridin-3-yl)-ethyl]-2,8-dimethyl-2,3,4,5-tetrahydro-1H-pyrido[4,3-b]indole] | 101% | 97% | 75% | 96% | 115% | 37% |  | 
